Assay results reported in ChEMBL document CHEMBL1122681, “(Acylaryloxy)acetic acid diuretics. 5. [(2-Alkyl- and 2,2-disubstituted-1,3-dioxo-5-indanyl)oxy]acetic acids” (J Med Chem, 1984).
Values belong to the compound of their own block, whether it stands above or below them.

Columns and labels:
Rattus norvegicus [1] = experiment: Compound was evaluated for diuretic activity administered orally in female rats measured as milliequivalents of K+x 100 / cage at 27 mg/kg; assay type: functional, Urine; details: route oral
Pan troglodytes [2] = experiment: (§1) Compound was evaluated for diuretic activity in chimpanzee measured as increase in the number of microequivalents of Na+ /min at 1 mg/kg; assay type: functional, Urine
Pan troglodytes [3] = experiment: Compound was evaluated for diuretic activity in chimpanzee measured as clearance of […] and urate after intravenous administration of 1 mg/kg; assay type: functional, Urine
Rattus norvegicus [4] = experiment: Compound was evaluated for diuretic activity administered orally in female rats measured as milliequivalents of Cl-x 100 / cage at 9 mg/kg; assay type: functional, Urine; details: route oral
[5] = volume of urine at 3 mg/kg; assay type: ADME, organism-based; design: dose 3 mg/kg; details: in vivo
Rattus norvegicus [6] = experiment: Compound was evaluated for diuretic activity administered orally in female rats measured as milliequivalents of Cl-x 100 / cage at 3 mg/kg; assay type: functional, Urine; details: route oral
Pan troglodytes [7] = experiment: (§2) Compound was evaluated for diuretic activity in chimpanzee measured as increase in the number of microequivalents of Cl- electrolyte/min at 1 mg/kg; assay type: functional, Urine
Rattus norvegicus [8] = experiment: Compound was evaluated for diuretic activity administered orally in female rats measured as milliequivalents of Cl-+x 100 / cage at 27 mg/kg; assay type: functional, Urine; details: route oral
Rattus norvegicus [9] = experiment: Compound was evaluated for diuretic activity administered orally in female rats measured as milliequivalents of Na+x 100 / cage at 27 mg/kg; assay type: functional, Urine; details: route oral
Pan troglodytes [10] = experiment: Compound was evaluated for diuretic activity in chimpanzee measured as clearance of […] and urate after peroral administration of 5 mg/kg; assay type: functional, Urine; details: route oral
Rattus norvegicus [11] = experiment: Compound was evaluated for diuretic activity administered orally in female rats measured as milliequivalents of K+x 100 / cage at 3 mg/kg; assay type: functional, Urine; details: route oral
[12] = volume of urine at 9 mg/kg; assay type: ADME, organism-based; design: dose 9 mg/kg; details: in vivo
Rattus norvegicus [13] = experiment: Compound was evaluated for diuretic activity administered orally in female rats measured as milliequivalents of K+x 100 / cage at 9 mg/kg; assay type: functional, Urine; details: route oral
Rattus norvegicus [14] = experiment: Compound was evaluated for diuretic activity administered orally in female rats measured as milliequivalents of Cl-x 100 / cage at 81 mg/kg; assay type: functional, Urine; details: route oral
[15] = volume of urine at 27 mg/kg; assay type: ADME, organism-based; design: dose 27 mg/kg; details: in vivo
Pan troglodytes [16] = experiment: Compound was evaluated for diuretic activity in chimpanzee measured as increase in the number of microequivalents of K+ /min at 5 mg/kg; assay type: functional, Urine
Canis familiaris [17] = experiment: Compound was evaluated for diuretic activity, in female mongrel dogs by measuring amount of Na+ in urine after iv administration of 5 mg/kg (control/compound treatment results) Control = 35; assay type: functional, Canis lupus familiaris
Pan troglodytes [18] = experiment: Compound was evaluated for diuretic activity in chimpanzee measured as increase in the number of microequivalents of Na+ /min at 5 mg/kg; assay type: functional, Urine
Pan troglodytes [19] = experiment: Compound was evaluated for diuretic activity in chimpanzee measured as increase in the number of microequivalents of Cl- electrolyte/min at 5 mg/kg; assay type: functional, Urine
Canis familiaris [20] = experiment: Compound was evaluated for diuretic activity, in female mongrel dogs by measuring amount of Cl- in urine after iv administration of 5 mg/kg (control/compound treatment results) Control = 5; assay type: functional, Canis lupus familiaris
Canis familiaris [21] = experiment: Compound was evaluated for diuretic activity, in female mongrel dogs by measuring volume of urine, after iv administration of 5 mg/kg (control/compound treatment results) Control = 2; assay type: ADME, organism-based, Canis lupus familiaris; design: dose 5 mg/kg, route intravenous; details: dog, in vivo
Rattus norvegicus [22] = experiment: Compound was evaluated for diuretic activity administered orally in female rats measured as milliequivalents of K+x 100 / cage at 81 mg/kg; assay type: functional, Urine; details: route oral
Rattus norvegicus [23] = experiment: Compound was evaluated for diuretic activity administered orally in female rats measured as milliequivalents of Na+x 100 / cage at 3 mg/kg; assay type: functional, Urine; details: route oral
Pan troglodytes [24] = experiment: Compound was evaluated for diuretic activity in chimpanzee measured as increase in the number of microequivalents of K+ /min at 1 mg/kg; assay type: functional, Urine
Rattus norvegicus [25] = experiment: Compound was evaluated for diuretic activity administered orally in female rats measured as milliequivalents of Na+x 100 / cage at 9 mg/kg; assay type: functional, Urine; details: route oral
Rattus norvegicus [26] = experiment: Compound was evaluated for diuretic activity administered orally in female rats measured as milliequivalents of Na+x 100 / cage at 81 mg/kg; assay type: functional, Urine; details: route oral
Pan troglodytes [27] = experiment: Compound was evaluated for diuretic activity in chimpanzee measured as increase in volume of urine at 1 mg/kg; assay type: functional
[28] = volume of urine at 81 mg/kg; assay type: ADME, organism-based; design: dose 81 mg/kg; details: in vivo
Pan troglodytes [29] = experiment: Compound was evaluated for diuretic activity in chimpanzee measured as increase in volume of urine at 5 mg/kg; assay type: functional
Canis familiaris [30] = experiment: Compound was evaluated for diuretic activity, in female mongrel dogs by measuring amount of K+ in urine after iv administration of 5 mg/kg (control/compound treatment results) Control = 10; assay type: functional, Canis lupus familiaris
Canis familiaris [31] = experiment: (§3) Compound was evaluated for diuretic activity, in female mongrel dogs by measuring volume of urine, after iv administration of 5 mg/kg (control/compound treatment results) Control = 1; assay type: ADME, organism-based, Canis lupus familiaris; design: dose 5 mg/kg, route intravenous; details: dog, in vivo
Canis familiaris [32] = experiment: Compound was evaluated for diuretic activity, in female mongrel dogs by measuring amount of Na+ in urine after iv administration of 5 mg/kg (control/compound treatment results) Control = 29; assay type: functional, Canis lupus familiaris
Pan troglodytes [33] = experiment: as §2; assay type: functional, Urine; remark: listed apart in the source
Canis familiaris [34] = experiment: Compound was evaluated for diuretic activity, administered orally in female mongrel dogs (5 mg/kg) measured as milliequivalents of Na; assay type: functional, Canis lupus familiaris, Urine
Canis familiaris [35] = experiment: Compound was evaluated for diuretic activity, in female mongrel dogs by measuring amount of K+ in urine after iv administration of 5 mg/kg (control/compound treatment results) Control = 18; assay type: functional, Canis lupus familiaris
Canis familiaris [36] = species: Canis familiaris; experiment: volume of urine in dog; assay type: ADME, organism-based, Canis lupus familiaris; details: in vivo
Canis familiaris [37] = experiment: Compound was evaluated for diuretic activity, in female mongrel dogs by measuring amount of Cl- in urine after iv administration of 5 mg/kg (control/compound treatment results) Control = 1; assay type: functional, Canis lupus familiaris
Canis familiaris [38] = experiment: Compound was evaluated for diuretic activity, administered orally in female mongrel dogs (5 mg/kg) measured as milliequivalents of K; assay type: functional, Canis lupus familiaris, Urine
Pan troglodytes [39] = experiment: Compound was evaluated for diuretic activity in chimpanzee measured as clearance of […] and urate after intra venous administration of 1 mg/kg.; assay type: functional, Urine
Canis familiaris [40] = experiment: Compound was evaluated for diuretic activity, administered orally in female mongrel dogs (5 mg/kg) measured as milliequivalents of Cl-; assay type: functional, Canis lupus familiaris, Urine
Pan troglodytes [41] = experiment: as §1; assay type: functional, Urine; remark: listed apart in the source
Canis familiaris [42] = experiment: Compound was evaluated for diuretic activity, in female mongrel dogs by measuring amount of Na+ in urine after iv administration of 5 mg/kg (control/compound treatment results) Control = 37; assay type: functional, Canis lupus familiaris
Canis familiaris [43] = species: Canis familiaris; experiment: Volume of urine in dog; assay type: ADME, organism-based, Canis lupus familiaris; details: in vivo
Canis familiaris [44] = experiment: as §3; assay type: functional, Canis lupus familiaris
Pan troglodytes [45] = experiment: Compound was evaluated for diuretic activity in chimpanzee measured as clearance of […] and urate after intra venous administration of 1 mg/kg; assay type: functional, Urine
Canis familiaris [46] = experiment: Compound was evaluated for diuretic activity, in female mongrel dogs by measuring amount of Cl- in urine after iv administration of 5 mg/kg (control/compound treatment results) Control = 6; assay type: functional, Canis lupus familiaris
Canis familiaris [47] = experiment: Compound was evaluated for diuretic activity, in female mongrel dogs by measuring amount of K+ in urine after iv administration of 5 mg/kg (control/compound treatment results) Control = 5; assay type: functional, Canis lupus familiaris

Urine volume [5]: 24 mL
Urine volume [12]: 27 mL
Urine volume [15]: 27 mL
Urine volume (Canis familiaris [21]): 2 mL/min
Urine volume [28]: 25 mL
Compound: Cc1c(OCC(=O)O)cc2c(c1Cl)C(=O)C(C)(C1CCCC1)C2=O (configuration not stated)
Activity (Rattus norvegicus [1]): 22
Increase (Pan troglodytes [2]): 82
Delta C urate / delta C insulin (Pan troglodytes [3]): 0.204
Activity (Rattus norvegicus [4]): 30
Activity (Rattus norvegicus [6]): 17
Increase (Pan troglodytes [7]): 129
Activity (Rattus norvegicus [8]): 40
Activity (Rattus norvegicus [9]): 50
Delta C urate / delta C insulin (Pan troglodytes [10]): 0.149
Activity (Rattus norvegicus [11]): 21
Activity (Rattus norvegicus [13]): 24
Activity (Rattus norvegicus [14]): 86
Increase (Pan troglodytes [16]): 54
Activity (Canis familiaris [17]): 132 u equiv min-1
Increase (Pan troglodytes [18]): 388
Increase (Pan troglodytes [19]): 527
Activity (Canis familiaris [20]): 48 u equiv min-1
Activity (Rattus norvegicus [22]): 36
Activity (Rattus norvegicus [23]): 19
Increase (Pan troglodytes [24]): 51
Activity (Rattus norvegicus [25]): 41
Activity (Rattus norvegicus [26]): 76
Increase in volume (Pan troglodytes [27]): 0.6 mL/min
Increase in volume (Pan troglodytes [29]): 0 mL/min
Activity (Canis familiaris [30]): 41 u equiv min-1

Urine volume (Canis familiaris [31]): 3 mL/min
Urine volume [5]: 26 mL
Urine volume [12]: 28 mL
Urine volume [15]: 36 mL
Urine volume (Canis familiaris [36]): 36 mL
Urine volume [28]: 46 mL
Compound: NS(=O)(=O)c1cc(C(=O)O)c(NCc2ccco2)cc1Cl [FUROSEMIDE]
Activity (Rattus norvegicus [1]): 60
Increase (Pan troglodytes [2]): 738
Activity (Canis familiaris [32]): 960 u equiv min-1
Activity (Rattus norvegicus [4]): 96
Activity (Rattus norvegicus [6]): 71
Increase (Pan troglodytes [7]): 928
Activity (Rattus norvegicus [8]): 228
Activity (Rattus norvegicus [9]): 150
Delta C urate / delta C insulin (Pan troglodytes [10]): -0.083
Activity (Rattus norvegicus [11]): 31
Increase (Pan troglodytes [33]): 961
Activity (Canis familiaris [34]): 23
Activity (Rattus norvegicus [13]): 39
Activity (Rattus norvegicus [14]): 328
Activity (Canis familiaris [35]): 141 u equiv min-1
Activity (Canis familiaris [37]): 1081 u equiv min-1
Activity (Canis familiaris [38]): 31
Delta C urate / delta C insulin (Pan troglodytes [39]): -0.005
Activity (Rattus norvegicus [22]): 97
Activity (Rattus norvegicus [23]): 57
Increase (Pan troglodytes [24]): 154
P Increase (Pan troglodytes [24]): 100
Activity (Canis familiaris [40]): 8
Activity (Rattus norvegicus [25]): 69
Activity (Rattus norvegicus [26]): 253
Increase (Pan troglodytes [27]): 0.8 mL/min
Increase in volume (Pan troglodytes [27]): 7.3 mL/min
Increase (Pan troglodytes [41]): 749

Urine volume (Canis familiaris [43]): 553 mL
Compound: CCC1C(=O)c2cc(OCC(=O)O)c(C)c(C)c2C1=O (configuration not stated)
Activity (Canis familiaris [42]): 196 u equiv min-1
Activity (Canis familiaris [44]): 4 mL/min
Increase (Pan troglodytes [7]): 314
Delta C urate / delta C insulin (Pan troglodytes [10]): 0.061
Activity (Canis familiaris [34]): 6
Delta C urate / delta C insulin (Pan troglodytes [45]): 0.101
Activity (Canis familiaris [46]): 114 u equiv min-1
Increase (Pan troglodytes [16]): 30
Increase (Pan troglodytes [18]): 194
Increase (Pan troglodytes [19]): 244
Activity (Canis familiaris [47]): 24 u equiv min-1
Activity (Canis familiaris [38]): 5
Increase (Pan troglodytes [24]): 41
Activity (Canis familiaris [40]): 8
Increase in volume (Pan troglodytes [27]): 1.6 mL/min
Increase (Pan troglodytes [41]): 254
Increase in volume (Pan troglodytes [29]): 1.2 mL/min
